The values that follow come from patent US20250326739A1, “CD38 MODULATORS AND USES THEREOF” (Aeovian Pharmaceuticals, Inc., priority 2022, published 2025).

pIC50: −log10 of the molar value.

In one test the target is mouse CD38 (Mus musculus (Mouse), UniProt P56528). Nature of the test: NAD+ cyclase activity assay with mouse recombinant CD38 protein. Type of test: biochemical. To be noted: 0.6 nM mouse CD38, 15.8 μM e-NAD substrate, fluorescence read-out. The method, then:
(§1) Example 5: NAD^+ Cydase Activity Assay with Human or Mouse Recombinant CD38 Protein
(§2) The following assay was used to determine the ability of compounds of the invention to inhibit the hydrolysis of NAD^+ by the human or mouse enzyme, CD38.
(§3) Reaction buffer: 40 mM HEPES/NaOH pH 7.5, 250 mM sucrose, 0.01% Tween
(§4) Final concentrations: 0.6 nM mouse CD38 (4947-AC, Bio-Techne GmbH) 1.9 nM human CD38 (AVI2404, Bio-Techne GmbH)
(§5) Substrate: 15.8 μM Nicotinamide 1,N6-ethenoadenine dinucleotide (E-NAD)
(§6) Read-out: Fluorescence intensity (extinction 300 nm/emission 410 nm)
(§7) Required reaction buffer, required CD38 concentration in reaction buffer and required e-NAD concentration in reaction buffer were prepared. Thereafter, 8 μL of CD38 in reaction buffer were added to High Control and compound concentration wells in 384 well plate (Corning #4514, 384 well, nonbinding surface, low volume, round bottom) and 8 μL of reaction buffer to Low Control. Compound dilutions were transferred via pintool technology that transfers 42.5 nL compound dilutions (12-point dose-response with factor three dilutions in 100% DMSO) well-to-well. Plate was subsequently shaken for 15 s at 1450 rpm and sealed for incubation for 30 min at room temperature. Thereafter, 2 μL of e-NAD in reaction buffer were added with Integra Voyager. After shaking for 15 s at 1450 rpm, plate was sealed, and assay signal was measured continuously with PHERAstar® fluorescence intensity module (extinction 300 nm/emission 410 nm).
(§8) Dose-response curves were constructed using twelve-point factor three dilutions in triplicates per plate. High control (full enzyme activity) was set to assay signal of CD38 and e-NAD in presence of vehicle (DMSO) and Low control (full enzyme inhibition) was set to assay signal of e-NAD and vehicle (DMSO) in absence of CD38. For data analysis, fluorescent signal of traces corresponding to each compound concentration and High and Low control was monitored over time. Each run, High Control (full enzyme activity) was fitted to Linear equation via GraphPad Prism to determine CD38 activity from the slope and determine the time interval of linear phase of reaction to account for minor fluctuations. Thereafter, slopes of all compound concentrations were determined via fitting to same linear equation (GraphPad Prism) over the same time interval as determined for High control. Percentage inhibition was calculated via normalization to High and Low Control via the equation: %−inhibition=100*(1−((Sample−Low control)/(High control−Low control))) Half maximal inhibitory concentration (IC50) values are yielded from the inflection point of the corresponding curve by fitting of resulting percentage inhibition values to standard equation (4 Parameter Logistic Model or Sigmoidal Dose-Response Model) via Excel Fit. Unless otherwise stated, fitting of curves was fixed to 100%-inhibition and unlocked for 0%-inhibition.

Another test addresses human CD38 (Homo sapiens (Human), UniProt P28907). Put plainly: NAD+ cyclase activity assay with human recombinant CD38 protein. Particulars: 1.9 nM human CD38, 15.8 μM e-NAD substrate, fluorescence read-out. Type of test: biochemical. As for the experimental part: as §1, §2, §3, §4, §5, §6, §7, §8

Sequence of human CD38 (P28907 whole entry): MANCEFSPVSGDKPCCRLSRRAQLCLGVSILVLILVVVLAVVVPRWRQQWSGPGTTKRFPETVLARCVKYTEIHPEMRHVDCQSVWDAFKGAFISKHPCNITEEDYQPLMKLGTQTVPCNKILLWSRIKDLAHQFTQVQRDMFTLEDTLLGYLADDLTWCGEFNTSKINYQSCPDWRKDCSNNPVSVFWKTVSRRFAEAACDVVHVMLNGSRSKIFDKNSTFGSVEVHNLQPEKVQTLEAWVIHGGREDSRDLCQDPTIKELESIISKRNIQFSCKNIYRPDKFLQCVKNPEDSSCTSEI
Sequence of mouse CD38 (P56528 whole entry): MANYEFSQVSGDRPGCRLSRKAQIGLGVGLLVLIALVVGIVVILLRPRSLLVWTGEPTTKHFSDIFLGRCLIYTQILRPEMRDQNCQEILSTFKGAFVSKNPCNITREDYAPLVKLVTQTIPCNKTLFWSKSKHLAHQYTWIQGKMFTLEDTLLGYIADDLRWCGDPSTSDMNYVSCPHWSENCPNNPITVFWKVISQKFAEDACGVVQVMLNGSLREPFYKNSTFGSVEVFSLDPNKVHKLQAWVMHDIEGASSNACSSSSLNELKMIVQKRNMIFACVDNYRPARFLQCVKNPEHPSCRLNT

Turning to `Cc1cc(C(=O)NC2COCC(F)(F)C2)nc(-n2ccnc2)c1` (stereo in doubt) [Compound 67A, (R)—N-(5,5-Ddifluorotetrahydro-2H-pyran-3-yl)-6-(1H-imidazol-1-yl)-4-methylpicolinamide], the pIC50 (usually the IC50 on a negative log10 scale, so that one unit is a factor of ten) is 8.00 to 9.00 at mouse CD38 and 6.00 to 7.00 on human CD38.
Turning to `Cc1cc(C(=O)NC2CCN(S(C)(=O)=O)CC2)nc(-n2ccnc2)c1` [Compound 1A, 6-(1H-Imidazol-1-yl)-4-methyl-N-(1-(methylsulfonyl)piperidin-4-yl)picolinamide], the values for the pIC50 on mouse CD38 and on human CD38 were 8.00 to 9.00 and 7.00 to 7.52, respectively.
The corresponding values for `CCS(=O)(=O)N1CCC(NC(=O)c2cc(C)cc(-n3ccnc3)n2)CC1` [Compound 2A, N-(1-(Ethylsulfonyl)piperidin-4-yl)-6-(1H-imidazol-1-yl)-4-methylpicolinamide] are 8.00 to 9.00 and over 7.52.
For `Cc1cc(C(=O)NC2CCN(S(=O)(=O)C3CC3)CC2)nc(-n2ccnc2)c1` [Compound 3A, N-(1-(cyclopropylsulfonyl)piperidin-4-yl)-6-(1H-imidazol-1-yl)-4-methylpicolinamide], in that order: 8.00 to 9.00 and over 7.52.
For `COCCS(=O)(=O)N1CCC(NC(=O)c2cc(C)cc(-n3ccnc3)n2)CC1` [Compound 4A, 6-(1H-Imidazol-1-yl)-N-(1-((2-methoxyethyl)sulfonyl)piperidin-4-yl)-4-methylpicolinamide], in that order: 8.00 to 9.00 and over 7.52.
As for `Cc1cc(C(=O)NC2CCN(S(=O)(=O)C3CCCCC3)CC2)nc(-n2ccnc2)c1` [Compound 5A, N-(1-(Cyclohexylsulfonyl)piperidin-4-yl)-6-(1H-imidazol-1-yl)-4-methylpicolinamide], the pIC50 at mouse CD38 is 8.00 to 9.00; at human CD38, over 7.52.
Regarding `CCCS(=O)(=O)N1CCC(NC(=O)c2cc(C)cc(-n3ccnc3)n2)CC1` [Compound 6A, 6-(1H-Imidazol-1-yl)-4-methyl-N-(1-(propylsulfonyl)piperidin-4-yl)picolinamide], the results for the pIC50 at mouse CD38 and at human CD38 were 8.00 to 9.00 and over 7.52, respectively.
For the compound `Cc1cc(C(=O)NC2CN(S(C)(=O)=O)C2)nc(-n2ccnc2)c1` [Compound 7A, 6-(1H-Imidazol-1-yl)-4-methyl-N-(1-(methylsulfonyl)azetidin-3-yl)picolinamide], the pIC50 at mouse CD38 was 8.00 to 9.00; on human CD38 it was 7.00 to 7.52.
For `Cc1cc(C(=O)NC2CCC(F)(F)CC2)nc(-n2ccnc2)c1` [Compound 8A, N-(4,4-Difluorocyclohexyl)-6-(1H-imidazol-1-yl)-4-methylpicolinamide], in that order: 8.00 to 9.00 and over 7.52.
For `Cc1cc(C(=O)NC2CCCOC2)nc(-n2ccnc2)c1` (stereo not shown) [Compound 9A, 6-(1H-Imidazol-1-yl)-4-methyl-N-(tetrahydro-2H-pyran-3-yl)picolinamide], in that order: 8.00 to 9.00 and over 7.52.
Regarding `CC(=O)N1CCC(NC(=O)c2cc(C)cc(-n3ccnc3)n2)CC1` [Compound 10A, N-(1-Acetylpiperidin-4-yl)-6-(1H-imidazol-1-yl)-4-methylpicolinamide], the pIC50 on mouse CD38 is 8.00 to 9.00; on human CD38 it was 7.00 to 7.52.
The corresponding values for `Cc1cc(C(=O)NC2CCNCC2)nc(-n2ccnc2)c1` [Compound 11A, 6-(1H-Imidazol-1-yl)-4-methyl-N-(piperidin-4-yl)picolinamide] are 8.00 to 9.00 and under 6.00.
The corresponding values for `Cc1cc(C(=O)NC2CCC2)nc(-n2ccnc2)c1` [Compound 12A, N-Cyclobutyl-6-(1H-imidazol-1-yl)-4-methylpicolinamide] are 8.00 to 9.00 and 7.00 to 7.52.
For `CCCC(=O)N1CCC(NC(=O)c2cc(C)cc(-n3ccnc3)n2)CC1` [Compound 13A, N-(1-Butyrylpiperidine-4-yl)-6-(1H-imidazol-1-yl)-4-methylpicolinamide], in that order: 8.00 to 9.00 and 7.00 to 7.52.
Consider `CNS(=O)(=O)N1CCC(NC(=O)c2cc(C)cc(-n3ccnc3)n2)CC1` [Compound 14A, 6-(1H-Imidazol-1-yl)-4-methyl-N-(1-(N-methylsulfamoyl)piperidin-4-yl)picolinamide], for which the results for the pIC50 on mouse CD38 and at human CD38 were 8.00 to 9.00 and 6.00 to 7.00, respectively.
The corresponding values for `COc1cc(C(=O)NC2CCN(S(C)(=O)=O)CC2)nc(-n2ccnc2)c1` [Compound 15A, 6-(1H-Imidazol-1-yl)-4-methoxy-N-(1-(methylsulfonyl)piperidin-4-yl)picolinamide] are 8.00 to 9.00 and 7.00 to 7.52.
The corresponding values for `CS(=O)(=O)N1CCC(NC(=O)c2cccc(-n3ccnc3)n2)CC1` [Compound 16A, 6-(1H-Imidazol-1-yl)-N-(1-(methylsulfonyl)piperidin-4-yl)picolinamide] are 8.00 to 9.00 and 7.00 to 7.52.
Regarding `Cc1cc(C(=O)NC2CCN(S(=O)(=O)N(C)C)CC2)nc(-n2ccnc2)c1` [Compound 18A, N-(1-(N,N-Dimethylsulfamoyl)piperidin-4-yl)-6-(1H-imidazol-1-yl)-4-methylpicolinamide], the pIC50 on mouse CD38 was 8.00 to 9.00; at human CD38 it was over 7.52.
For `Cc1cc(C(=O)NC2CCN(C(=O)CN3CCOCC3)CC2)nc(-n2ccnc2)c1` [Compound 19A, 6-(1H-Imidazol-1-yl)-4-methyl-N-(1-(2-morpholinoacetyl)piperidin-4-yl)picolinamide], in that order: 8.00 to 9.00 and 7.00 to 7.52.
For `COCCC(=O)N1CCC(NC(=O)c2cc(C)cc(-n3ccnc3)n2)CC1` [Compound 20A, 6-(1H-Imidazol-1-yl)-N-(1-(3-methoxypropanoyl)piperidin-4-yl)-4-methylpicolinamide], in that order: 8.00 to 9.00 and 7.00 to 7.52.
Regarding `Cc1cc(C(=O)NC2CCN(C(=O)N(C)C)CC2)nc(-n2ccnc2)c1` [Compound 21A, N-(1-(Dimethylcarbamoyl)piperidin-4-yl)-6-(1H-imidazol-1-yl)-4-methylpicolinamide], the values for the pIC50 at mouse CD38 and on human CD38 were 8.00 to 9.00 and 7.00 to 7.52, respectively.
The corresponding values for `CNC(=O)N1CCC(NC(=O)c2cc(C)cc(-n3ccnc3)n2)CC1` [Compound 22A, 6-(1H-Imidazol-1-yl)-4-methyl-N-(1-(methylcarbamoyl)piperidin-4-yl)picolinamide] are 8.00 to 9.00 and over 7.52.
For `Cc1cc(C(=O)NC2CCS(=O)(=O)C2)nc(-n2ccnc2)c1` (stereo not shown) [Compound 23A, N-(1,1-Dioxidotetrahydrothiophen-3-yl)-6-(1H-imidazol-1-yl)-4-methylpicolinamide], in that order: 8.00 to 9.00 and 7.00 to 7.52.
For `Cc1cc(C(=O)NC2CCOC(C)(C)C2)nc(-n2ccnc2)c1` (stereo not shown) [Compound 24A, N-(2,2-Dimethyltetrahydro-2H-pyran-4-yl)-6-(1H-imidazol-1-yl)-4-methylpicolinamide], in that order: 8.00 to 9.00 and 6.00 to 7.00.
For `Cc1cc(C(=O)NC2COCCC2(F)F)nc(-n2ccnc2)c1` (stereo not shown) [Compound 25A, N-(4,4-Difluorotetrahydro-2H-pyran-3-yl)-6-(1H-imidazol-1-yl)-4-methylpicolinamide], the pIC50 is 8.00 to 9.00 on mouse CD38 and 7.00 to 7.52 on human CD38.
The corresponding values for `Cc1cc(C(=O)NC2COCC(F)(F)C2)nc(-n2ccnc2)c1` (stereo not shown) [Compound 26A, N-(5,5-Difluorotetrahydro-2H-pyran-3-yl)-6-(1H-imidazol-1-yl)-4-methylpicolinamide] are 8.00 to 9.00 and 7.00 to 7.52.
The corresponding values for `Cc1cc(C(=O)NC2CCOCC2(C)C)nc(-n2ccnc2)c1` (stereo not shown) [Compound 27A, N-(3,3-Dimethyltetrahydro-2H-pyran-4-yl)-6-(1H-imidazol-1-yl)-4-methylpicolinamide] are 7.00 to 8.00 and 6.00 to 7.00.
The corresponding values for `Cc1cc(C(=O)NC2CC3CCC(C2)O3)nc(-n2ccnc2)c1` (stereo not shown) [Compound 28A, N-(8-Oxabicyclo[3.2.1]octan-3-yl)-6-(1H-imidazol-1-yl)-4-methylpicolinamide] are 8.00 to 9.00 and 6.00 to 7.00.
Turning to `Cc1cc(C(=O)NC2CCC(C)(C)OC2)nc(-n2ccnc2)c1` (stereo not shown) [Compound 29A, N-(6,6-Dimethyltetrahydro-2H-pyran-3-yl)-6-(1H-imidazol-1-yl)-4-methylpicolinamide], the pIC50 was 8.00 to 9.00 at mouse CD38 and 7.00 to 7.52 at human CD38.
